Experimental data from PubChem BioAssay (NCI).
Several values for one entry are separate records, joined by “and”; a condition that tells them apart may be missing. Equal values may be shown once.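 Briefly, cells in 96-well plates were exposed to five compound concentrations for 48 h, and endpoints were estimated by linear interpolation. GI50 is the concentration that inhibits growth by half. At the TGI there is no net growth.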

Assays:
Experiment in all cases: NCI anticancer screen, dose series, 48 h
BT-549 breast = test system: BT-549 breast
COLO 205 colon = test system: COLO 205 colon
DU-145 prostate = test system: DU-145 prostate
HCT-116 colon = test system: HCT-116 colon
LOX IMVI melanoma = test system: LOX IMVI melanoma
NCI-H23 lung = test system: NCI-H23 lung
OVCAR-5 ovarian = test system: OVCAR-5 ovarian
RPMI-8226 leukemia = test system: RPMI-8226 leukemia
SN12C renal = test system: SN12C renal
UACC-257 melanoma = test system: UACC-257 melanoma

## O=C(NCc1ccco1)c1ccc(NC2=C(Cl)C(=O)N(Cc3ccccc3)C2=O)cc1
BT-549 breast
  GI50: 17.9 µM
  TGI: 36.5 µM
COLO 205 colon
  GI50: 28.4 µM
  TGI: 80.1 µM
DU-145 prostate
  GI50: 15.8 µM
  TGI: 29.2 µM
HCT-116 colon
  GI50: 10.2 µM
  TGI: 21.8 µM
LOX IMVI melanoma
  GI50: > 100 µM
  TGI: > 100 µM
NCI-H23 lung
  GI50: 13.8 µM
  TGI: 27.5 µM
OVCAR-5 ovarian
  GI50: 19.7 µM
  TGI: 44.9 µM
RPMI-8226 leukemia
  GI50: 8.52 µM
  TGI: 23.6 µM
SN12C renal
  GI50: 17.4 µM
  TGI: 40.6 µM
UACC-257 melanoma
  GI50: 28.9 µM
  TGI: 80.8 µM

## Nc1c(C(=O)c2ccc(CCCN3CCOCC3)cc2)cnn1-c1ccc(F)cc1
BT-549 breast
  GI50: > 25 µM
  TGI: > 25 µM
COLO 205 colon
  GI50: > 25 µM
  TGI: > 25 µM
DU-145 prostate
  GI50: > 25 µM
  TGI: > 25 µM
HCT-116 colon
  GI50: > 25 µM
  TGI: > 25 µM
LOX IMVI melanoma
  GI50: > 25 µM
  TGI: > 25 µM
NCI-H23 lung
  GI50: > 25 µM
  TGI: > 25 µM
OVCAR-5 ovarian
  GI50: > 25 µM
  TGI: > 25 µM
RPMI-8226 leukemia
  GI50: > 15.4 µM
  TGI: > 25 µM
SN12C renal
  GI50: > 25 µM
  TGI: > 25 µM
UACC-257 melanoma
  GI50: 24.3 µM
  TGI: > 25 µM

## CCS(=O)(=O)Nc1cccc(Nc2c3cccc(C)c3nc3c(C)cccc23)c1OC
BT-549 breast
  GI50: 2.54 µM
  TGI: 25.1 µM
COLO 205 colon
  GI50: 2.56 µM
  TGI: > 100 µM
DU-145 prostate
  GI50: 0.545 µM
  TGI: 14.1 µM
HCT-116 colon
  GI50: 0.793 µM
  TGI: > 51.9 µM
LOX IMVI melanoma
  GI50: 0.273 µM
  TGI: > 91.5 µM
NCI-H23 lung
  GI50: 0.653 µM
  TGI: > 100 µM
OVCAR-5 ovarian
  GI50: 3.86 µM
  TGI: 41.5 µM
RPMI-8226 leukemia
  GI50: 0.573 µM
  TGI: 12.5 µM
SN12C renal
  GI50: 0.374 µM
  TGI: 9.84 µM
UACC-257 melanoma
  GI50: 2.46 µM
  TGI: 38.5 µM

## CCCCCCCCCCCCOC1C(C(CC(=O)N2CCN(c3cccc(C(F)(F)F)c3)CC2)NS(=O)(=O)c2cc(Cl)cc(Cl)c2)OC2OC(C)(C)OC21 (stereo not drawn)
BT-549 breast
  GI50: > 100 µM
  TGI: > 100 µM
COLO 205 colon
  GI50: > 100 µM
  TGI: > 100 µM
DU-145 prostate
  GI50: > 100 µM
  TGI: > 100 µM
HCT-116 colon
  GI50: > 100 µM
  TGI: > 100 µM
LOX IMVI melanoma
  GI50: > 100 µM
  TGI: > 100 µM
NCI-H23 lung
  GI50: > 100 µM
  TGI: > 100 µM
OVCAR-5 ovarian
  GI50: > 37.5 µM
  TGI: > 100 µM
RPMI-8226 leukemia
  GI50: > 100 µM
  TGI: > 100 µM
SN12C renal
  GI50: > 100 µM
  TGI: > 100 µM
UACC-257 melanoma
  GI50: > 100 µM
  TGI: > 100 µM

## CN(C)CCOC(c1ccccc1)c1ccccc1
BT-549 breast
  GI50: 33.7 µM
  TGI: 48.4 µM
COLO 205 colon
  GI50: 14 µM
  TGI: 28.3 µM and > 100 µM
DU-145 prostate
  GI50: 40.3 µM
  TGI: 55.8 µM and > 100 µM
HCT-116 colon
  GI50: 32.1 µM
  TGI: 48.7 µM and > 100 µM
LOX IMVI melanoma
  TGI: > 100 µM
NCI-H23 lung
  GI50: 38 µM
  TGI: 53.4 µM and > 100 µM
OVCAR-5 ovarian
  GI50: 36.7 µM
  TGI: 52.4 µM and > 100 µM
RPMI-8226 leukemia
  TGI: > 100 µM
SN12C renal
  GI50: 34.6 µM
  TGI: 50.2 µM and > 100 µM
UACC-257 melanoma
  GI50: 14.2 µM
  TGI: 19.8 µM and > 100 µM

## CCCCCCc1nc2nc(Cl)c(Cl)nc2[nH]1
BT-549 breast
  GI50: 22.5 µM
  TGI: > 100 µM
COLO 205 colon
  GI50: 8.04 µM
  TGI: > 100 µM
DU-145 prostate
  GI50: 83.2 µM
  TGI: > 100 µM
HCT-116 colon
  GI50: 6.83 µM
  TGI: > 100 µM
LOX IMVI melanoma
  GI50: 6.24 µM
  TGI: > 100 µM
NCI-H23 lung
  GI50: 3.68 µM
  TGI: > 100 µM
OVCAR-5 ovarian
  GI50: > 100 µM
  TGI: > 100 µM
RPMI-8226 leukemia
  GI50: 2.66 µM
  TGI: > 100 µM
SN12C renal
  GI50: 4.26 µM
  TGI: > 100 µM
UACC-257 melanoma
  GI50: 3.02 µM
  TGI: > 100 µM

## O=c1c2ccccc2c2ccccc2c(=O)n1Cc1ccc2c(c1)OCO2
BT-549 breast
  TGI: 88.7 µM
COLO 205 colon
  TGI: > 100 µM
DU-145 prostate
  TGI: > 100 µM
HCT-116 colon
  TGI: > 100 µM
LOX IMVI melanoma
  TGI: > 100 µM
NCI-H23 lung
  TGI: > 71.8 µM
OVCAR-5 ovarian
  TGI: > 100 µM
RPMI-8226 leukemia
  TGI: > 67.4 µM
SN12C renal
  TGI: > 100 µM
UACC-257 melanoma
  TGI: > 100 µM

## CCc1cc2c(cc1N1CCC(N3CCOCC3)CC1)C(C)(C)c1[nH]c3cc(C#N)ccc3c1C2=O
BT-549 breast
  GI50: 1.49 µM and 1.6 µM
  TGI: 3.69 µM and 3.87 µM
COLO 205 colon
  GI50: 1.95 µM and 2.21 µM and 1.64 µM
  TGI: 6.37 µM and 7.16 µM and 8.45 µM
DU-145 prostate
  GI50: 1.67 µM and 1.46 µM and 1.95 µM
  TGI: 5.96 µM and 3.52 µM and 7.19 µM
HCT-116 colon
  GI50: 1.76 µM and 1.79 µM and 3.1 µM
  TGI: 3.85 µM and 3.6 µM and > 10 µM
LOX IMVI melanoma
  GI50: 1.63 µM and 1.73 µM and 1.52 µM
  TGI: 6.38 µM and 5.47 µM and 4.19 µM
NCI-H23 lung
  GI50: 2.8 µM and 3.45 µM and 5.94 µM
  TGI: 38.6 µM and 20 µM and > 10 µM
OVCAR-5 ovarian
  GI50: 1.52 µM and 1.29 µM and 1.93 µM
  TGI: 19.3 µM and 9.3 µM and > 10 µM
RPMI-8226 leukemia
  GI50: 0.549 µM and 0.415 µM and 0.497 µM
  TGI: 8.9 µM and > 10 µM
SN12C renal
  GI50: 2.23 µM and 1.44 µM and 1.55 µM
  TGI: 8.69 µM and 6.23 µM and 4.5 µM
UACC-257 melanoma
  GI50: 2.3 µM and 3.2 µM
  TGI: 21.1 µM and 25.9 µM and > 10 µM

## COc1cc(-c2ncn(/C=C\C(=O)OC(C)C)n2)cc(C(F)(F)F)c1
BT-549 breast
  GI50: 0.0351 µM and 0.0343 µM
  TGI: 1.03 µM and 1.69 µM
COLO 205 colon
  GI50: 0.0432 µM and 0.0437 µM
  TGI: 1.28 µM and 1.46 µM
DU-145 prostate
  GI50: 0.238 µM and 0.2 µM
  TGI: 12.5 µM and 11.7 µM
HCT-116 colon
  GI50: 0.0528 µM and 0.0688 µM
  TGI: 1.58 µM and 11.3 µM
LOX IMVI melanoma
  GI50: 0.0271 µM and 0.0287 µM
  TGI: 0.39 µM and 0.524 µM
NCI-H23 lung
  GI50: 0.0663 µM and 0.103 µM
  TGI: 14.1 µM and 12.1 µM
OVCAR-5 ovarian
  GI50: 0.196 µM and 0.154 µM
  TGI: 17.3 µM and 14.8 µM
RPMI-8226 leukemia
  GI50: 0.036 µM and 0.0286 µM
  TGI: > 36.1 µM and 4.66 µM
SN12C renal
  GI50: 0.28 µM and 0.314 µM
  TGI: 11.7 µM and 11 µM
UACC-257 melanoma
  GI50: 0.142 µM and 0.136 µM
  TGI: 11.8 µM and 14.4 µM

## O=C(NCc1ccncc1)C12CC3CC(C1)CC(c1ccc(Cl)cc1)(C3)C2
BT-549 breast
  GI50: 10.6 µM
  TGI: 26.4 µM
COLO 205 colon
  GI50: 12.7 µM
  TGI: 27.1 µM
DU-145 prostate
  GI50: 14.8 µM
  TGI: 28.6 µM
HCT-116 colon
  GI50: 9.4 µM
  TGI: 22.3 µM
LOX IMVI melanoma
  GI50: 15 µM
  TGI: 30.1 µM
NCI-H23 lung
  GI50: 14.4 µM
  TGI: 32.7 µM
OVCAR-5 ovarian
  GI50: 14 µM
  TGI: 28.7 µM
RPMI-8226 leukemia
  GI50: 7.59 µM
  TGI: 71.7 µM
SN12C renal
  GI50: 13.4 µM
  TGI: 27.3 µM
UACC-257 melanoma
  GI50: 12.4 µM
  TGI: 25.1 µM

## NC1=NCCN1CC(=O)O
BT-549 breast
  GI50: > 10000 µM
  TGI: > 10000 µM
COLO 205 colon
  GI50: > 10000 µM
  TGI: > 10000 µM
DU-145 prostate
  GI50: > 10000 µM
  TGI: > 10000 µM
HCT-116 colon
  GI50: > 10000 µM
  TGI: > 10000 µM
LOX IMVI melanoma
  GI50: > 10000 µM
  TGI: > 10000 µM
NCI-H23 lung
  GI50: > 10000 µM
  TGI: > 10000 µM
OVCAR-5 ovarian
  GI50: > 10000 µM
  TGI: > 10000 µM
RPMI-8226 leukemia
  GI50: > 10000 µM
  TGI: > 10000 µM
SN12C renal
  GI50: > 10000 µM
  TGI: > 10000 µM
UACC-257 melanoma
  GI50: > 10000 µM
  TGI: > 10000 µM

## C/C(=C(\c1ccc(OCCN2CCCCCC2)cc1)c1ccc(OC(=O)Cc2ccccc2)cc1)c1ccc(Cl)cc1
BT-549 breast
  GI50: 2.2 µM
  TGI: 4.58 µM
COLO 205 colon
  GI50: 2.8 µM
  TGI: 5.56 µM
DU-145 prostate
  GI50: 3.15 µM
  TGI: 6.32 µM
HCT-116 colon
  GI50: 1.32 µM
  TGI: 3.47 µM
LOX IMVI melanoma
  GI50: 2.51 µM
  TGI: 4.77 µM
NCI-H23 lung
  GI50: 2.81 µM
  TGI: 7.13 µM
OVCAR-5 ovarian
  GI50: 2.77 µM
  TGI: 6.45 µM
RPMI-8226 leukemia
  GI50: 1.82 µM
  TGI: 5.47 µM
SN12C renal
  GI50: 2.56 µM
  TGI: 5.07 µM
UACC-257 melanoma
  GI50: 3.25 µM
  TGI: 6.22 µM

## COc1ccc(OC)c(-c2cc(=O)c3c(OC)c(OC)c(OC)c(OC)c3o2)c1
BT-549 breast
  TGI: > 100 µM
COLO 205 colon
  TGI: 31.6 µM
DU-145 prostate
  TGI: > 100 µM
HCT-116 colon
  TGI: > 100 µM
LOX IMVI melanoma
  TGI: 76.1 µM
NCI-H23 lung
  TGI: > 100 µM
OVCAR-5 ovarian
  TGI: > 100 µM
RPMI-8226 leukemia
  TGI: 76 µM
SN12C renal
  TGI: > 100 µM
UACC-257 melanoma
  TGI: > 100 µM
